Patent publication US7074447B2 (Laboratories Miret, S.A., priority 2001, dated 2006)

Key:
Assay in all cases: minimum inhibition concentration and Kull synergy index of LAE / potassium sorbate
Type in all cases: cell-based
[1] = tested on: Candida albicans (ATCC 10231); settings: for SI, synergy index: <1 synergism, 1 addition, >1 antagonism
Method: The invention is now explained by a number of examples. In these examples LAE and sorbate alone and in a number of different combinations have been investigated against a number of bacterial preparations. For the analysis usually an internal method was used. […] The interaction of the two components of the antimicrobial mixture is calculated according to the method described by Kull et al. (Kull […]. and Mayer R. L., Applied Microbiology, 1961; 6:538-541). According to this method the so-called synergy index is calculated according to the following formula: Synergy index […]. […] The same method was used as described for example 1. […] Again the effects of the components alone and in combination have been calculated using the same method as described at Example 1.

[2] = tested on: Escherichia coli (ATCC 8739); settings: for SI, synergy index: <1 synergism, 1 addition, >1 antagonism
Method: (§1) The invention is now explained by a number of examples. In these examples LAE and sorbate alone and in a number of different combinations have been investigated against a number of bacterial preparations. For the analysis usually an internal method was used. Conditions and medium were Mueller Hinton broth (pH 7.4) or (pH 5.0) for bacteria, Sabouraud broth (pH 5.8) for yeast and Sabouraud medium for moulds. The interaction of the two components of the antimicrobial mixture is calculated according to the method described by Kull et al. (Kull […]. and Mayer R. L., Applied Microbiology, 1961; 6:538-541). According to this method the so-called synergy index is calculated according to the following formula: Synergy index […]. […] The same method was used as described for example 1. […] Again the effects of the components alone and in combination have been calculated using the same method as described at Example 1.

[3] = tested on: Enterobacter aerogenes (ATCC 13048); settings: for SI, synergy index: <1 synergism, 1 addition, >1 antagonism
Method: as §1

[4] = tested on: Citrobacter intermedium (CECT 401); settings: for SI, synergy index: <1 synergism, 1 addition, >1 antagonism
Method: as §1

[5] = tested on: Penicillium camemberti (CECT 2267); settings: for SI, synergy index: <1 synergism, 1 addition, >1 antagonism
Method: as §1

[6] = tested on: Cladosporium cladosporioides (ATCC 16022); settings: for SI, synergy index: <1 synergism, 1 addition, >1 antagonism
Method: as §1

[7] = tested on: Staphylococcus aureus (ATCC 6538); settings: for SI, synergy index: <1 synergism, 1 addition, >1 antagonism
Method: (§2) The invention is now explained by a number of examples. In these examples LAE and sorbate alone and in a number of different combinations have been investigated against a number of bacterial preparations. For the analysis usually an internal method was used. Conditions and medium were Mueller Hinton broth (pH 7.4) or (pH 5.0) for bacteria, Sabouraud broth (pH 5.8) for yeast and Sabouraud medium for moulds. The interaction of the two components of the antimicrobial mixture is calculated according to the method described by Kull et al. (Kull […]. and Mayer R. L., Applied Microbiology, 1961; 6:538-541). According to this method the so-called synergy index is calculated according to the following formula: Synergy index […]. […] Again the effects of the components alone and in combination have been calculated using the same method as described at Example 1.

[8] = tested on: Bacillus megaterium (CECT 44); settings: pH 7.4, aqueous solutions
Method: as §2

[9] = tested on: Bacillus subtilis (CECT 356); settings: for SI, synergy index: <1 synergism, 1 addition, >1 antagonism
Method: The invention is now explained by a number of examples. In these examples LAE and sorbate alone and in a number of different combinations have been investigated against a number of bacterial preparations. For the analysis usually an internal method was used. Conditions and medium were Mueller Hinton broth (pH 7.4) or (pH 5.0) for bacteria, Sabouraud broth (pH 5.8) for yeast and Sabouraud medium for moulds. […] The interaction of the two components of the antimicrobial mixture is calculated according to the method described by Kull et al. (Kull […]. and Mayer R. L., Applied Microbiology, 1961; 6:538-541). According to this method the so-called synergy index is calculated according to the following formula: Synergy index […]. […] All indicated symbols indicate a particular concentration leading to a particular end point, in this case the inhibition of growth of Bacillus subtilis, so that the selected end point is in fact the minimal inhibitory concentration (mic).

[10] = pH 7.4, propylene glycol solutions

SMILES: C/C=C/C=C/C(=O)[O-].[K+] [potassium sorbate]
- QS, minimum inhibition concentration of potassium sorbate as single antimicrobial ([1]; pH 5.0): 1024
- Qlae, minimum inhibition concentration of LAE in the mixture ([1]; pH 5.0): 0
- Qlae/QLAE ([1]; pH 5.0): 0
- Qs, minimum inhibition concentration of potassium sorbate in the mixture ([1]; pH 5.0): 1024.00
- Qs/QS ([1]; pH 5.0): 1.00
- SI, synergy index ([1]; pH 5.0): 1.00
- QS, minimum inhibition concentration of potassium sorbate as single antimicrobial ([1]; pH 7.4, aqueous solutions): 1024
- Qlae, minimum inhibition concentration of LAE in the mixture ([1]; pH 7.4, aqueous solutions): 0
- Qlae/QLAE ([1]; pH 7.4, aqueous solutions): 0
- Qs, minimum inhibition concentration of potassium sorbate in the mixture ([1]; pH 7.4, aqueous solutions): 1024.00
- Qs/QS ([1]; pH 7.4, aqueous solutions): 1.00
- SI, synergy index ([1]; pH 7.4, aqueous solutions): 1.00
- QS, minimum inhibition concentration of potassium sorbate as single antimicrobial ([2]; pH 5.0): 1024
- Qlae, minimum inhibition concentration of LAE in the mixture ([2]; pH 5.0): 0
- Qlae/QLAE ([2]; pH 5.0): 0
- Qs, minimum inhibition concentration of potassium sorbate in the mixture ([2]; pH 5.0): 1024.00
- Qs/QS ([2]; pH 5.0): 1.00
- SI, synergy index ([2]; pH 5.0): 1.00
- QS, minimum inhibition concentration of potassium sorbate as single antimicrobial ([2]; pH 7.4, aqueous solutions): 1536
- Qlae, minimum inhibition concentration of LAE in the mixture ([2]; pH 7.4, aqueous solutions): 0
- Qlae/QLAE ([2]; pH 7.4, aqueous solutions): 0
- Qs, minimum inhibition concentration of potassium sorbate in the mixture ([2]; pH 7.4, aqueous solutions): 1536
- Qs/QS ([2]; pH 7.4, aqueous solutions): 1.00
- SI, synergy index ([2]; pH 7.4, aqueous solutions): 1.00
- QS, minimum inhibition concentration of potassium sorbate as single antimicrobial ([3]; pH 5.0): 1024
- Qlae, minimum inhibition concentration of LAE in the mixture ([3]; pH 5.0): 0
- Qlae/QLAE ([3]; pH 5.0): 0
- Qs, minimum inhibition concentration of potassium sorbate in the mixture ([3]; pH 5.0): 1024.00
- Qs/QS ([3]; pH 5.0): 1.00
- SI, synergy index ([3]; pH 5.0): 1.00
- QS, minimum inhibition concentration of potassium sorbate as single antimicrobial ([3]; pH 7.4, aqueous solutions): 1536
- Qlae, minimum inhibition concentration of LAE in the mixture ([3]; pH 7.4, aqueous solutions): 0
- Qs, minimum inhibition concentration of potassium sorbate in the mixture ([3]; pH 7.4, aqueous solutions): 1536
- Qs/QS ([3]; pH 7.4, aqueous solutions): 1.00
- SI, synergy index ([3]; pH 7.4, aqueous solutions): 1.00
- QS, minimum inhibition concentration of potassium sorbate as single antimicrobial ([4]; pH 5.0): 512
- Qlae, minimum inhibition concentration of LAE in the mixture ([4]; pH 5.0): 0
- Qlae/QLAE ([4]; pH 5.0): 0
- Qs, minimum inhibition concentration of potassium sorbate in the mixture ([4]; pH 5.0): 1024.00
- Qs/QS ([4]; pH 5.0): 1.00
- SI, synergy index ([4]; pH 5.0): 1.00
- QS, minimum inhibition concentration of potassium sorbate as single antimicrobial ([4]; pH 7.4, aqueous solutions): 1536
- Qlae, minimum inhibition concentration of LAE in the mixture ([4]; pH 7.4, aqueous solutions): 0
- Qlae/QLAE ([4]; pH 7.4, aqueous solutions): 0
- Qs, minimum inhibition concentration of potassium sorbate in the mixture ([4]; pH 7.4, aqueous solutions): 1536
- Qs/QS ([4]; pH 7.4, aqueous solutions): 1.00
- SI, synergy index ([4]; pH 7.4, aqueous solutions): 1.00
- QS, minimum inhibition concentration of potassium sorbate as single antimicrobial ([5]; pH 5.0): 1024
- Qlae, minimum inhibition concentration of LAE in the mixture ([5]; pH 5.0): 0
- Qlae/QLAE ([5]; pH 5.0): 0
- Qs, minimum inhibition concentration of potassium sorbate in the mixture ([5]; pH 5.0): 1024.00
- Qs/QS ([5]; pH 5.0): 1.00
- SI, synergy index ([5]; pH 5.0): 1.00
- QS, minimum inhibition concentration of potassium sorbate as single antimicrobial ([5]; pH 7.4, aqueous solutions): 2048
- Qlae, minimum inhibition concentration of LAE in the mixture ([5]; pH 7.4, aqueous solutions): 0
- Qlae/QLAE ([5]; pH 7.4, aqueous solutions): 0
- Qs, minimum inhibition concentration of potassium sorbate in the mixture ([5]; pH 7.4, aqueous solutions): 2048
- Qs/QS ([5]; pH 7.4, aqueous solutions): 1.00
- SI, synergy index ([5]; pH 7.4, aqueous solutions): 1.00
- QS, minimum inhibition concentration of potassium sorbate as single antimicrobial ([6]; pH 5.0): 1024
- Qlae, minimum inhibition concentration of LAE in the mixture ([6]; pH 5.0): 0
- Qlae/QLAE ([6]; pH 5.0): 0
- Qs, minimum inhibition concentration of potassium sorbate in the mixture ([6]; pH 5.0): 1024.00
- Qs/QS ([6]; pH 5.0): 1.00
- SI, synergy index ([6]; pH 5.0): 1.00
- QS, minimum inhibition concentration of potassium sorbate as single antimicrobial ([6]; pH 7.4, aqueous solutions): 1024
- Qlae, minimum inhibition concentration of LAE in the mixture ([6]; pH 7.4, aqueous solutions): 0
- Qlae/QLAE ([6]; pH 7.4, aqueous solutions): 0.00
- Qs, minimum inhibition concentration of potassium sorbate in the mixture ([6]; pH 7.4, aqueous solutions): 1024
- Qs/QS ([6]; pH 7.4, aqueous solutions): 1.00
- SI, synergy index ([6]; pH 7.4, aqueous solutions): 1.00
- QS, minimum inhibition concentration of potassium sorbate as single antimicrobial ([7]; pH 5.0): 1024
- Qlae, minimum inhibition concentration of LAE in the mixture ([7]; pH 5.0): 0
- Qlae/QLAE ([7]; pH 5.0): 0
- Qs, minimum inhibition concentration of potassium sorbate in the mixture ([7]; pH 5.0): 1024.00
- Qs/QS ([7]; pH 5.0): 1.00
- SI, synergy index ([7]; pH 5.0): 1.00
- QS, minimum inhibition concentration of potassium sorbate as single antimicrobial ([7]; pH 7.4, aqueous solutions): 1536
- Qlae, minimum inhibition concentration of LAE in the mixture ([7]; pH 7.4, aqueous solutions): 0
- Qlae/QLAE ([7]; pH 7.4, aqueous solutions): 0.0
- Qs, minimum inhibition concentration of potassium sorbate in the mixture ([7]; pH 7.4, aqueous solutions): 1536
- Qs/QS ([7]; pH 7.4, aqueous solutions): 1.00
- SI, synergy index ([7]; pH 7.4, aqueous solutions): 1.00
- QS, minimum inhibition concentration of potassium sorbate as single antimicrobial [8]: 1024
- Qlae, minimum inhibition concentration of LAE in the mixture [8]: 0
- Qlae/QLAE [8]: 0
- Qs, minimum inhibition concentration of potassium sorbate in the mixture [8]: 1024
- Qs/QS [8]: 1.00
- SI, synergy index ([8]; <1 synergism, 1 addition, >1 antagonism): 1.00
- QS, minimum inhibition concentration of potassium sorbate as single antimicrobial ([9]; pH 5.0): 1024
- Qlae, minimum inhibition concentration of LAE in the mixture ([9]; pH 5.0): 0
- Qlae/QLAE ([9]; pH 5.0): 0
- Qs, minimum inhibition concentration of potassium sorbate in the mixture ([9]; pH 5.0): 1024.00
- Qs/QS ([9]; pH 5.0): 1.00
- SI, synergy index ([9]; pH 5.0): 1.00
- QS, minimum inhibition concentration of potassium sorbate as single antimicrobial [9, 10]: 1024
- Qlae, minimum inhibition concentration of LAE in the mixture [9, 10]: 0
- Qlae/QLAE [9, 10]: 0
- Qs, minimum inhibition concentration of potassium sorbate in the mixture [9, 10]: 1024
- Qs/QS [9, 10]: 1.00
- SI, synergy index [9, 10]: 1.00
